{
  "source": "patent US10550102B2",
  "about": "“Indane and indoline derivatives and the use thereof as soluble guanylate cyclase activators” (NOVARTIS AG, priority 2014, dated 2020)",
  "data": [
    {"biological_target": "soluble guanylate cyclase (human GUCYA3 and GUCYB3) overexpressed in CHO cells (Homo sapiens (Human), UniProt Q02108+Q02153)", "sequence (Q02108 whole entry partner)": "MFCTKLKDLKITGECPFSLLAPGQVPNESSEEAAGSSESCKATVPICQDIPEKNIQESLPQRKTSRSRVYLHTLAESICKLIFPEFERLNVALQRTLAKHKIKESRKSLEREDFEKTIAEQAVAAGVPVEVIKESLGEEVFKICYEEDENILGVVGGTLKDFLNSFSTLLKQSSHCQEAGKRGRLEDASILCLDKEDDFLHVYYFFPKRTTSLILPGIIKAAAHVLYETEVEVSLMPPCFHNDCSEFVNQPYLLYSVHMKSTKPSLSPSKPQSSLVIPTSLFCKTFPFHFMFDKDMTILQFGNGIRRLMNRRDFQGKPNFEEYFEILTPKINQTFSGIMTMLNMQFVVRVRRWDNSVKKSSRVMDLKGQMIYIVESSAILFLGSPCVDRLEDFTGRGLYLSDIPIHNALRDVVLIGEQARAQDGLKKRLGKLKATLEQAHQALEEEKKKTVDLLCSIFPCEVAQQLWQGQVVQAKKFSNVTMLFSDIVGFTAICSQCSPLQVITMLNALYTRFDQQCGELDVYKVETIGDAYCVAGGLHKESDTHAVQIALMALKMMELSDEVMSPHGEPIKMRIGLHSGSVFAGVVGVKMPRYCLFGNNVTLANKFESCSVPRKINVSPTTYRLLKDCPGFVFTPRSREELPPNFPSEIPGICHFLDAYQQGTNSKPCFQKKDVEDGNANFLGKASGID", "sequence (Q02153 whole entry)": "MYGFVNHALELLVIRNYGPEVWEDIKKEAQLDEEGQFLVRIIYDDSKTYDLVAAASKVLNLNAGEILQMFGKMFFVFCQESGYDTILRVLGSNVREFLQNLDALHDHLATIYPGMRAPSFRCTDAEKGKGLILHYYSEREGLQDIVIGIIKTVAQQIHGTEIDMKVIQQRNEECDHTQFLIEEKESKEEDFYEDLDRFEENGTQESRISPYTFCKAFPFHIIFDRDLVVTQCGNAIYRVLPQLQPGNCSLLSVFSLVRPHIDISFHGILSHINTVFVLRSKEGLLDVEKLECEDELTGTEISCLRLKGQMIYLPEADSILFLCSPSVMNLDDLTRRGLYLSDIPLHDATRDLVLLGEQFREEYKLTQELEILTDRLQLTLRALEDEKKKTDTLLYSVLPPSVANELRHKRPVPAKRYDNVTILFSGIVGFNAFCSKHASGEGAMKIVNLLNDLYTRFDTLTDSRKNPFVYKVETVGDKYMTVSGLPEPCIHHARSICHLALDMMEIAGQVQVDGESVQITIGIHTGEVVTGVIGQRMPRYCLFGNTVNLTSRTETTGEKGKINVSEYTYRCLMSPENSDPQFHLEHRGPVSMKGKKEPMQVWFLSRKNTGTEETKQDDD", "assay": "CHO cellular assay (cGMP production, Cisbio cGMP HTRF kit)", "assay_type": "cell-based", "conditions": "CHO GUCY clone 8E10, cGMP production, assay buffer with 1 mM IBMX and 20 uM ODQ, 1 h room temperature; minimum quantification limit 0.5 nM (listed 0.5 nM means ≤0.5 nM); read-out: EC50", "description": "Chinese hamster ovary (CHO) cells overexpressing soluble guanylate cyclase were generated to test the effect of sGC activators in a cellular context. Human cDNAs for GUCYA3 (RefSeq: NM_000856.3) and GUCYB3 (RefSeq: NM_000857.1) were amplified by PCR from a HUVEC (Human Umbilical Vein Endothelial Cells) cDNA library and cloned into mammalian expression vectors. CHO K1 cells (ATCC CCL-61) were transfected using Lipofectamine 2000 following manufacturer's instructions and stably expressing clones were identified by antibiotic selection. CHO GUCY clone 8E10 was used for subsequent experiments. Cells were seeded at a density of 3000 cells/well in white 384-well proxyplates (Perkin Elmer) and incubated overnight, then the medium was removed and cells were washed with assay buffer (HBSS, 0.1% BSA. 1 mM IBMX, 20 uM ODQ). sGC activators were serially diluted in DMSO, then diluted in assay buffer prior to adding to cells (10 ul/well, final DMSO concentration 0.5%). Cells were incubated with compounds for 1 h room temperature, then assayed for cGMP production using Cisbio cGMP HTRF kit (62GM2PEC) according to manufacturer's instructions. The EC50s are calculated based on the amount of cGMP interpolated from the standard curve, using a 4-parameter sigmoidal dose-response.", "units": {"EC50": "nM"}, "values": [
      {"molecule": "Cc1cc2c(c(-c3cccc(-n4ncc(C(=O)O)c4C(F)(F)F)n3)c1)C(Nc1ccc(C3CCN(C(=O)C4CC4)CC3)cc1C)CC2", "note": "(racemic) [Example 11-1, (±)-1-(6-(3-((4-(1-(cyclopropanecarbonyl)piperidin-4-yl)-2-methylphenyl)amino)-6-methyl-2,3-dihydro-1H-inden-4-yl)pyridin-2-yl)-5-(trifluoromethyl)-1H-pyrazole-4-carboxylic acid]", "EC50": 1},
      {"molecule": "Cc1cc(C2CCN(C(=O)C3CC3)CC2)ccc1NC1CCc2cccc(-c3cccc(-n4ncc(C(=O)O)c4C)c3)c21", "note": "(racemic) [Example 11-4, (±)-1-(3-(3-((4-(1-(cyclopropanecarbonyl)piperidin-4-yl)-2-methylphenyl)amino)-2,3-dihydro-1H-inden-4-yl)phenyl)-5-methyl-1H-pyrazole-4-carboxylic acid]", "EC50": "≤ 0.5"},
      {"molecule": "Cc1cc(C2CCN(c3ccccn3)CC2)ccc1NC1CCc2cccc(-c3cccc(-n4ncc(C(=O)O)c4C)n3)c21", "note": "(racemic) [Example 59, (±)-Methyl-16-(3-((2-methyl-4-(1-(pyridin-2-yl)piperidin-4-yl)phenyl)amino)-2,3-dihydro-1H-inden-4-yl)pyridin-2-yl)-1H-pyrazole-4-carboxylic Acid]", "EC50": 1},
      {"molecule": "Cc1cc(C2CCN(C3CC3)CC2)ccc1NC1CCc2cccc(-c3cccc(-n4ncc(C(=O)O)c4C)n3)c21", "note": "(racemic) [Example 60, (±)-1-(6-(3-(4-(1-Cyclopropylpiperidin-4-yl)-2-methylphenyl)amino)-2,3-dihydro-1H-inden-4-yl)pyridin-2-yl)-5-methyl-1H-pyrazole-4-carboxylic Acid]", "EC50": 5.3},
      {"molecule": "Cc1cc(C2CCN(C(=O)C3CC3)CC2)cnc1NC1CCc2cccc(-c3cccc(-n4ncc(C(=O)O)c4C)n3)c21", "note": "(racemic) [Example 62, (±)-1-(6-(3-((5-(1-Cyclopropanecarbonyl)piperidin-4-yl)-3-methylpyridin-2-yl)amino)-2,3-dihydro-1H-inden-4-yl)pyridin-2-yl)-5-methyl-1H-pyrazole-4-carboxylic Acid]", "EC50": 6},
      {"molecule": "CCC(=O)N1CCC(c2ccc(NC3CCc4cccc(-c5cccc(-n6ncc(C(=O)O)c6C)n5)c43)c(C)c2)CC1", "note": "(single isomer, unassigned) [(+)-46-2, (−)-5-Methyl-1-(6-(3-((2-methyl-4-(1-propionylpiperidin-4-yl)phenyl)amino)-2,3-dihydro-1H-inden-4-yl)pyridin-2-yl)-1H-pyrazole-4-carboxylic acid]", "EC50": 1},
      {"molecule": "CCc1cc(CN2CC(C)c3cccc(-c4cccc(-n5ncc(C(=O)O)c5CC)n4)c32)ccc1C1CCN(C(=O)[C@H](C)O)CC1", "note": "(single isomer, unassigned) [Example 17a]", "EC50": "≤ 0.5"},
      {"molecule": "CCc1cc(O[C@H]2CCc3cccc(-c4cccc(-n5ncc(C(=O)O)c5CC)n4)c32)ccc1C1CCN(C(=O)C(C)CCO)CC1", "note": "(single isomer, unassigned) [Example 32a]", "EC50": "≤ 0.5"},
      {"molecule": "Cc1c(NC2CCc3cccc(-c4cccc(-n5ncc(C(=O)O)c5C)n4)c32)ccc(C2CCN(C(=O)CC3CC3)CC2)c1F", "note": "(single isomer, unassigned) [Example (+) or (−)-46-4, 1-(6-(3-((4-(1-(2-cyclopropylacetyl)piperidin-4-yl)-3-fluoro-2-methylphenyl)amino)-2,3-dihydro-1H-inden-4-yl)pyridin-2-yl)-5-methyl-1H-pyrazole-4-carboxylic acid]", "EC50": 1.4},
      {"molecule": "Cc1c(NC2CCc3cccc(-c4cccc(-n5ncc(C(=O)O)c5C)n4)c32)ccc(C2CCN(C(=O)CC3CC3)CC2)c1F", "note": "(single isomer, unassigned) [Example (−) or (+)-46-4, 1-(6-(3-((4-(1-(2-cyclopropylacetyl)piperidin-4-yl)-3-fluoro-2-methylphenyl)amino)-2,3-dihydro-1H-inden-4-yl)pyridin-2-yl)-5-methyl-1H-pyrazole-4-carboxylic acid]", "EC50": 136},
      {"molecule": "CCc1cc(CC2CCc3cccc(-c4cccc(-n5ncc(C(=O)O)c5CC)n4)c32)ccc1C1CCN(C(=O)C2CC2)CC1", "note": "(single isomer, unassigned; (+)) [38-1 (+), (+)-1-(6-(3-(4-(1-(cyclopropanecarbonyl)piperidin-4-yl)-3-ethylbenzyl)-2,3-dihydro-1H-inden-4-yl)pyridin-2-yl)-5-ethyl-1H-pyrazole-4-carboxylic acid]", "EC50": "≤ 0.5"},
      {"molecule": "CCc1cc(CC2CCc3cccc(-c4cccc(-n5ncc(C(=O)O)c5C)n4)c32)ccc1C1CCN(C(=O)C2CC2)CC1", "note": "(single isomer, unassigned; (+)) [38-2 (+), (+)-1-(6-(3-(4-(1-(cyclopropanecarbonyl)piperidin-4-yl)-3-ethylbenzyl)-2,3-dihydro-1H-inden-4-yl)pyridin-2-yl)-5-methyl-1H-pyrazole-4-carboxylic acid]", "EC50": "≤ 0.5"},
      {"molecule": "CCc1c(C(=O)O)cnn1-c1cccc(-c2cccc3c2C(Cc2ccc(C4CCN(C(=O)C5CC5)CC4)cc2C)CC3)n1", "note": "(single isomer, unassigned; (+)) [38-3 (+), (+)-1-(6-(3-(4-(1-(cyclopropanecarbonyl)piperidin-4-yl)-2-methylbenzyl)-2,3-dihydro-1H-inden-4-yl)pyridin-2-yl)-5-ethyl-1H-pyrazole-4-carboxylic acid]", "EC50": "≤ 0.5"},
      {"molecule": "CCC[C@H](O)C(=O)N1CCC(c2ccc(CC3CCc4cccc(-c5cccc(-n6ncc(C(=O)O)c6CC)n5)c43)cc2CC)CC1", "note": "(single isomer, unassigned; (+)) [40-1 (+)]", "EC50": "≤ 0.5"},
      {"molecule": "CCc1c(C(=O)O)cnn1-c1cccc(-c2cccc3c2C(Cc2ccc(C4CCN(C(=O)[C@H](C)O)CC4)cc2C)CC3)n1", "note": "(single isomer, unassigned; (+)) [40-2 (+)]", "EC50": "≤ 0.5"},
      {"molecule": "CCC[C@H](O)C(=O)N1CCC(c2ccc(CC3CCc4cccc(-c5cccc(-n6ncc(C(=O)O)c6CC)n5)c43)c(C)c2)CC1", "note": "(single isomer, unassigned; (+)) [40-3 (+)]", "EC50": "≤ 0.5"},
      {"molecule": "Cc1cc2c(c(-c3cccc(-n4ncc(C(=O)O)c4C(F)(F)F)n3)c1)C(Nc1ccc(C3CCN(C(=O)C4CC4)CC3)cc1C)CC2", "note": "(single isomer, unassigned; (+)) [43 (+), (+)-1-(6-(3-((4-(1-(Cyclopropanecarbonyl)piperidin-4-yl)-2-methylphenyl)amino)-6-methyl-2,3-dihydro-1H-inden-4-yl)pyridin-2-yl)-5-(trifluoromethyl)-1H-pyrazole-4-carboxylic acid]", "EC50": 1},
      {"molecule": "Cc1cc(C2CCN(C(=O)C3CC3)CC2)ccc1NC1CCc2cccc(-c3cccc(-n4ncc(C(=O)O)c4C)c3)c21", "note": "(single isomer, unassigned; (+)) [44 (+), (+)-1-(3-(3-((4-(1-(cyclopropanecarbonyl)piperidin-4-yl)-2-methylphenyl)amino)-2,3-dihydro-1H-inden-4-yl)phenyl)-5-methyl-1H-pyrazole-4-carboxylic acid]", "EC50": "≤ 0.5"},
      {"molecule": "Cc1cc(C2CCN(C(=O)C3CC3)CC2)ccc1CC1CCc2cccc(-c3cccc(-n4ncc(C(=O)O)c4C)c3)c21", "note": "(single isomer, unassigned; (+)) [54. b). (+), (+)-1-(3-(3-(4-(1-(cyclopropanecarbonyl)piperidin-4-yl)-2-methylbenzyl)-2,3-dihydro-1H-inden-4-yl)phenyl)-5-methyl-1H-pyrazole-4-carboxylic acid]", "EC50": 1},
      {"molecule": "CCc1cc(CC2CCc3cccc(-c4cccc(-n5ncc(C(=O)O)c5C)c4)c32)ccc1C1CCN(C(=O)C2CC2)CC1", "note": "(single isomer, unassigned; (+)) [55-1 (+), (+)-1-(3-(3-(4-(1-(cyclopropanecarbonyl)piperidin-4-yl)-3-ethylbenzyl)-2,3-dihydro-1H-inden-4-yl)phenyl)-5-methyl-1H-pyrazole-4-carboxylic acid]", "EC50": "≤ 0.5"},
      {"molecule": "Cc1nnc(N2CCC(c3ccc(NC4CCc5cccc(-c6cccc(-n7ncc(C(=O)O)c7C)n6)c54)c(C)c3)CC2)o1", "note": "(single isomer, unassigned; (+)) [58. b). (+), (+)-5-methyl-1-(6-(3-((2-methyl-4-(1-(5-methyl-1,3,4-oxadiazol-2-yl)piperidin-4-yl)phenyl)amino)-2,3-dihydro-1H-inden-4-yl)pyridin-2-yl)-1H-pyrazole-4-carboxylic acid]", "EC50": "≤ 0.5"},
      {"molecule": "CCc1cc(CN2CC(C)c3cccc(-c4cccc(-n5ncc(C(=O)O)c5CC)n4)c32)ccc1C1CCN(C(=O)C2CC2)CC1", "note": "(single isomer, unassigned; (+)) [(+)-20-1, (+)-1-(6-(1-(4-(1-(Cyclopropanecarbonyl)piperidin-4-yl)-3-ethylbenzyl)-3-methylindolin-7-yl)pyridin-2-yl)-5-ethyl-1H-pyrazole-4-carboxylic acid]", "EC50": "≤ 0.5"},
      {"molecule": "CCc1c(C(=O)O)cnn1-c1cccc(-c2cccc3c2N(Cc2ccc(C4CCN(C(=O)C5CC5)CC4)cc2C)CC3C)n1", "note": "(single isomer, unassigned; (+)) [(+)-20-2, (+)-1-(6-(1-(4-(1-(Cyclopropanecarbonyl)piperidin-4-yl)-2-methylbenzyl)-3-methylindolin-7-yl)pyridin-2-yl)-5-ethyl-1H-pyrazole-4-carboxylic acid]", "EC50": 9.9}
    ]}
  ]
}
